Measured values reported in publication PMC7696938, “Cinnamides Target Leishmania amazonensis Arginase Selectively” (Molecules, 2020).
Values joined by “and” are separate entries in the source; they are usually repeats but may differ in a detail not shown here. Equal entries are not always repeated. Where two headings read alike, the source gives them in different places.

Columns and labels:
[1] = biological target: T1, Leishmania amazonensis recombinant arginase (L-ARG) (Leishmania amazonensis, UniProt O96394); test: Arginase inhibition test, recombinant L-ARG (urea, Berthelot method); type: biochemical; parameters: Emax: dose or concentration left out as unconfirmed
Method: (§1) Recombinant L-ARG was expressed and purified as previously described. Briefly, Escherichia coli, containing arginase gene cloned in plasmid DNA, was grown in SOB (Super Optimal Broth) medium at 37 °C until it reached absorbance 0.6 at 600 nm. Then the recombinant L-ARG expression was induced with a final concentration of IPTG (isopropyl β-D-1-thiogalactopyranoside) 1 mM and MnSO4 10 mM for 3 h. The cells were harvested and lysed in 1 mL of buffer A (MOPS 100 mM, pH 7,2, NaCl 500 mM) containing PMSF (phenylmethanesulfonyl fluoride) 1 mM and 10% of CelLytic™ B. After lysis, the homogenate was centrifuged at 12,000× g for 10 min. Arginase in the supernatant was purified as previously described.
(§2) A stock solution (70 mM) was prepared in DMSO and stored at −20 °C for each compound just before the experiment. The inhibitory test was performed with 50 mM of L-arginine (pH 9.5), 50 mM CHES buffer (pH 9.5), and enzyme at 5 nM. The sample was incubated in a water bath at 37 °C for 15 min. Urea was quantified according to the Berthelot method, using commercial reagents. Briefly, the catalytic activity of the arginase reaction was stopped by transferring 2 μL of the reaction mixture into 150 μL of reagent I (20 mM phosphate buffer, pH 7, containing 60 mM Salicylate, 1 mM sodium nitroprusside, and >500 IU of urease). This mixture was incubated at 37 °C for 5 min. Next, 150 μL of reagent II (sodium hypochlorite 10 mM and NaOH 150 mM) was added, and the samples were incubated at 37 °C for 5 min. Measurement was taken at 600 nm using an Epoch 2 microplate reader (BioTek Instruments, Inc.). Two independent experiments were performed in triplicate until a coefficient of non-linear regression R^2 ≥ 0.95 was obtained. The sigmoidal model (log IC50) was used to determine IC50 and maximum effect (Emax) in GraphPad-Prism 6.01 software for Windows (San Diego, CA, USA).

[2] = system: Leishmania amazonensis recombinant arginase (L-ARG); test: as above; type: biochemical; parameters: Emax: dose or concentration left out as unconfirmed; settings: for Selective Index: L-ARG over B-ARG (bovine IC50 vs L. amazonensis IC50)
Method: as §1, §2

[3] = biological target: bovine arginase (B-ARG); parameters: method as in PMID 27690022; settings: cited from earlier work
[4] = biological target: T1, Leishmania amazonensis recombinant arginase (L-ARG); test: Determination of Ki, Kis and mechanism of inhibition of L-ARG (Dixon and Cornish-Bowden plots); type: biochemical; settings: for Mode of Inhibition: L-ARG; for Ki / Kis: L-arginine 25, 50, 100 mM, pH 9.5
Method: All reactions were performed in 50 mM CHES buffer, pH 9.5, containing variable concentrations of the substrate L-arginine (25, 50, and 100 mM) at pH 9.5. Inhibitors were tested at three different concentrations close to the IC50. All reactions were performed in triplicate in two independent experiments. Urea was quantified according to the Berthelot method using commercial reagents as previously described. The constant Ki was determined for competitive and mixed inhibitors, and Ki’ was determined uncompetitive and mixed using a Dixon and Cornish–Bowden plots. For non-competitive inhibitors, Ki and K’i values were the same, and y = 0 was determined to obtain that value.

[5] = biological target: human arginase (h-ARG); parameters: method as in PMID 27690022; settings: cited from earlier work
[6] = system: L. amazonensis promastigotes; test: Promastigote growth inhibition (MTT); type: cell-based; settings: Leishmania amazonensis, 78 h
Method: Promastigote forms of the strain MHO were inoculated initially in the concentration of 5 × 10^5 parasites/mL in M199 medium (Life Technologie, Carlsbad, CA, USA), pH 7.4, supplemented with 10% of fetal bovine serum, (50 µg/mL) streptomycin, and (100 U) penicillin at 24 °C. Cells were grown until they reached the stationary phase. After this, 998 μL of the culture at 5.0 × 10^5 cells/mL was incubated with 2 μL of the inhibitors (50 to 0.0005 mM) dissolved in DMSO to obtain final concentrations of 100 to 0.001 μM. Amphotericin B was used as a control of the cell growth inhibition, in a concentration varying from 60 to 0.0006 μM dissolved in DMSO. […] After this inhibition period, the surviving cells were washed twice with HBSS (Gibco), centrifuged at 2000× g for 10 min, and supernatant was removed. To verify the parasite viability, over the pellet of cells about 1000 µL of M199 medium content was added, with 5 mg/mL of MTT (3-(4,5-dimethylthiazol-2-yl)-2, 5-diphenyltetrazolium bromide, a tetrazole) (Sigma-Aldrich, St. Louis, MO, USA). Surviving parasites were exposed to MTT during 12 h at 34 °C in a CO2 chamber. After this period, the cells were centrifuged for 10 min at 2000× g and the supernatant was removed. Formazan crystals that were formed in the cells were dissolved with DMSO, the absorbance was read using an Epoch 2 Microplate Spectrophotometer at 600 nm.

[7] = biological target: T1, Leishmania amazonensis recombinant arginase (L-ARG); parameters: method as in PMID 30216691; settings: Table 2, unit inferred; read-out: IC50 inhibition of arginase, L. amazonensis; cited from earlier work
[8] = 50 mM L-arginine, pH 9.5, 37 °C, 15 min, read-out: IC50 (half inhibitory activity), L-ARG
[9] = Table 2, unit inferred, read-out: IC50 inhibition of arginase, L. amazonensis
[10] = read-out: Emax (maximal inhibitory activity)
[11] = Table 2, unit inferred, read-out: IC50 inhibition of arginase, Bovine

SMILES	IC50 [1, 8]	IC50 [1, 9] [µM]	Emax at 100 µM [1, 10] [%]	potency against L-ARG relative to human arginase ([2]; L-ARG IC50 vs human arginase IC50) [fold]	Selective Index [2]	IC50 [3, 11] [µM]	mode of inhibition of bovine arginase [3]	Mode of Inhibition [4]	Ki [4] [µM]	IC50 [5]	IC50 [6] [µM]	IC50 [7] [µM]	IC50 ([3]; read-out: IC50, bovine arginase) [µM]	Kis [4] [µM]	Emax [1, 10] [%]
O=C(/C=C/c1ccc(O)c(O)c1)NCCc1ccccc1 [CAPA, caffeic acid phenethyl amide]	6.9 ± 0.7 µM	6.9 ± 0.7	79 ± 1	9	1	6.9 ± 1.3	competitive inhibition	Competitive	3.9 ± 1	60.3 µM and 60 µM	82.6				
O=C(O)/C=C/c1ccc(O)c(O)c1 [Caffeic acid, reference compound]					58	86.7 ± 8						1.5 ± 0.3			
O=C(/C=C/c1ccc(O)c(O)c1)O[C@@H]1C[C@](O)(C(=O)O)C[C@@H](O)[C@H]1O [Chlorogenic acid, reference compound]					1.3	10.6 ± 1.6							~10		
O=C(/C=C/c1ccc(O)c(O)c1)NCCc1ccc(O)cc1 [Compound 6]	5.6 ± 0.4 µM	5.6 ± 0.4	82 ± 2		4	22.1 ± 1.6		Competitive	4.4 ± 1.1						
O=C(/C=C/c1ccc(O)c(O)c1)NCCc1ccc(O)c(O)c1 [Compound 11]	1.8 ± 0.1 µM	1.8 ± 0.1	81 ± 2		64	115 ± 1.3		Uncompetitive						2.5 ± 0.2	
COc1cc(/C=C/C(=O)NCCc2ccc(O)c(O)c2)ccc1O [Compound 12]	6.5 ± 1.4 µM	6.5 ± 1.4	75 ± 2		31	198.7 ± 1.4		Noncompetitive	9.6 ± 0.7					9.6 ± 0.7	
O=C(/C=C/c1ccc(O)cc1)NCCc1ccc(O)c(O)c1 [Compound 13]	2.5 ± 0.2 µM	2.5 ± 0.2	82 ± 1		68	170.4 ± 1.7		Competitive	1.6 ± 0.2						
COc1cc(/C=C/C(=O)NCCc2ccc(O)c(O)c2)cc(OC)c1OC [Compound 14]	2.4 ± 0.9 µM	2.4 ± 0.9	81 ± 2		81	193.6 ± 1.4		Competitive	1.2 ± 0.3						
O=C(/C=C/c1ccccc1)NCCc1ccc(O)c(O)c1 [Compound 15]		1.3 ± 0.1			30	39.3 ± 1.4		Mixed	1.4 ± 0.2					5 ± 1	80 ± 1
O=C(NCCc1ccc(O)cc1)c1ccc(O)c(O)c1 [Compound 17]	17.8 µM and 18 µM	18 ± 3	68 ± 2		10	175.3 ± 1.5		Competitive	11.4 ± 0.7						
COC(=O)C(Cc1ccc(O)c(O)c1)NC(=O)/C=C/c1ccc(O)c(O)c1 (centres unmarked) [Compound 18]	4 ± 1 µM	4 ± 1	89 ± 3		10	41.9 ± 1.3		Mixed	3.9 ± 0.4					27 ± 8	
COC(=O)C(CS)NC(=O)/C=C/c1ccc(O)c(O)c1 (centres unmarked) [Compound 19]	9 ± 1 µM	9 ± 1	90 ± 3		4	37 ± 1.3		Mixed	6.6 ± 0.3					28 ± 4	
